Experimental data: patent US9255295B2, “Method for evaluating the sensitizing potential of a test compound” (IMMUNOSEARCH, priority 2010, dated 2016)

Key:
[1] = tested on: genes specific for sensitization (BRAK, CTSS, DAPK2, FABP4, HSP27, IL18, HSP90, IL1R2, TPSAB1, CXCR1, DEFB1, DHFR, EHF, IVL, KRT4, MELANA, NGAL, PDZK1IP1, PI3 …); assay: Expression of the other (non-ARE) sensitization-specific genes in EPISKIN reconstructed skin (quantitative RT-PCR); assay type: cell-based, human
EPISKIN model = assay: Sensitizing power: sensitizing potential retested at successive dilutions in the EPISKIN model

Oc1ccc(O)cc1 [Hydroquinone]
CTSS expression compared to control ([1]; 10%): 0.8 | CTSS grade (NUMBER OF GENES) ([1]; 10%): 0 (if this expression is lower, the grade is 0) | CXCR1 expression compared to control ([1]; 10%): 2.2 | CXCR1 grade (NUMBER OF GENES) ([1]; 10%): 1 (If the expression is greater than 1.3 compared to the control, a grade of 11s given) | DAPK2 expression compared to control ([1]; 10%): 1.2 | DAPK2 grade (NUMBER OF GENES) ([1]; 10%): 0 (if this expression is lower, the grade is 0) | DEFB1 expression compared to control ([1]; 10%): 1.5 | DEFB1 grade (NUMBER OF GENES) ([1]; 10%): 1 (If the expression is greater than 1.3 compared to the control, a grade of 11s given) | DHFR expression compared to control ([1]; 10%): 0.7 | DHFR grade (NUMBER OF GENES) ([1]; 10%): 0 (if this expression is lower, the grade is 0) | EHF expression compared to control ([1]; 10%): 1.2 | EHF grade (NUMBER OF GENES) ([1]; 10%): 0 (if this expression is lower, the grade is 0) | FABP4 expression compared to control ([1]; 10%): 1.2 | FABP4 grade (NUMBER OF GENES) ([1]; 10%): 0 (if this expression is lower, the grade is 0) | HSP27 expression compared to control ([1]; 10%): 1.0 | HSP27 grade (NUMBER OF GENES) ([1]; 10%): 0 (if this expression is lower, the grade is 0) | HSP90 expression compared to control ([1]; 10%): 1.2 | HSP90 grade (NUMBER OF GENES) ([1]; 10%): 0 (if this expression is lower, the grade is 0) | IL18 expression compared to control ([1]; 10%): 0.9 | IL18 grade (NUMBER OF GENES) ([1]; 10%): 0 (if this expression is lower, the grade is 0) | IVL expression compared to control ([1]; 10%): 1.8 | IVL grade (NUMBER OF GENES) ([1]; 10%): 1 (If the expression is greater than 1.3 compared to the control, a grade of 11s given) | KRT4 expression compared to control ([1]; 10%): 1.2 | KRT4 grade (NUMBER OF GENES) ([1]; 10%): 0 (if this expression is lower, the grade is 0) | MELANA expression compared to control ([1]; 10%): 0.9 | MELANA grade (NUMBER OF GENES) ([1]; 10%): 0 (if this expression is lower, the grade is 0) | NGAL expression compared to control ([1]; 10%): 2.0 | NGAL grade (NUMBER OF GENES) ([1]; 10%): 1 (If the expression is greater than 1.3 compared to the control, a grade of 11s given) | P13 expression compared to control ([1]; 10%): 1.4 | P13 grade (NUMBER OF GENES) ([1]; 10%): 0 (if this expression is lower, the grade is 0) | PDZK1iP1 expression compared to control ([1]; 10%): 1.0 | PDZK1iP1 grade (NUMBER OF GENES) ([1]; 10%): 0 (if this expression is lower, the grade is 0) | SENS >1.3 (NUMBER OF GENES) ([1]; 10%): 4 | SERPINB3 expression compared to control ([1]; 10%): 1.1 | SERPINB3 grade (NUMBER OF GENES) ([1]; 10%): 0 (if this expression is lower, the grade is 0) | TOTAL SENS (NUMBER OF GENES) ([1]; 10%): 4 | BRAK expression compared to control ([1]; 50%): 0.8 | BRAK grade (NUMBER OF GENES) ([1]; 50%): 0 (if this expression is lower, the grade is 0) | CTSS expression compared to control ([1]; 50%): 1.6 | CTSS grade (NUMBER OF GENES) ([1]; 50%): 1 (If the expression is greater than 1.3 compared to the control, a grade of 11s given) | CXCR1 expression compared to control ([1]; 50%): 2.9 | CXCR1 grade (NUMBER OF GENES) ([1]; 50%): 1 (If the expression is greater than 1.3 compared to the control, a grade of 11s given) | DAPK2 expression compared to control ([1]; 50%): 1.0 | DAPK2 grade (NUMBER OF GENES) ([1]; 50%): 0 (if this expression is lower, the grade is 0) | DEFB1 expression compared to control ([1]; 50%): 2.0 | DEFB1 grade (NUMBER OF GENES) ([1]; 50%): 1 (If the expression is greater than 1.3 compared to the control, a grade of 11s given) | DHFR expression compared to control ([1]; 50%): 1.1 | DHFR grade (NUMBER OF GENES) ([1]; 50%): 0 (if this expression is lower, the grade is 0) | EHF expression compared to control ([1]; 50%): 1.5 | EHF grade (NUMBER OF GENES) ([1]; 50%): 1 (If the expression is greater than 1.3 compared to the control, a grade of 11s given) | FABP4 expression compared to control ([1]; 50%): 1.4 | FABP4 grade (NUMBER OF GENES) ([1]; 50%): 1 (If the expression is greater than 1.3 compared to the control, a grade of 11s given) | HSP27 expression compared to control ([1]; 50%): 1.3 | HSP27 grade (NUMBER OF GENES) ([1]; 50%): 0 (if this expression is lower, the grade is 0) | HSP90 expression compared to control ([1]; 50%): 1.8 | HSP90 grade (NUMBER OF GENES) ([1]; 50%): 1 (If the expression is greater than 1.3 compared to the control, a grade of 11s given) | IL18 expression compared to control ([1]; 50%): 0.9 | IL18 grade (NUMBER OF GENES) ([1]; 50%): 0 (if this expression is lower, the grade is 0) | IVL expression compared to control ([1]; 50%): 2.6 | IVL grade (NUMBER OF GENES) ([1]; 50%): 1 (If the expression is greater than 1.3 compared to the control, a grade of 11s given) | KRT4 expression compared to control ([1]; 50%): 1.1 | KRT4 grade (NUMBER OF GENES) ([1]; 50%): 0 (if this expression is lower, the grade is 0) | MELANA expression compared to control ([1]; 50%): 1.6 | MELANA grade (NUMBER OF GENES) ([1]; 50%): 1 (If the expression is greater than 1.3 compared to the control, a grade of 11s given) | NGAL expression compared to control ([1]; 50%): 1.3 | NGAL grade (NUMBER OF GENES) ([1]; 50%): 0 (if this expression is lower, the grade is 0) | P13 expression compared to control ([1]; 50%): 1.7 | P13 grade (NUMBER OF GENES) ([1]; 50%): 1 (If the expression is greater than 1.3 compared to the control, a grade of 11s given) | PDZK1iP1 expression compared to control ([1]; 50%): 1.0 | PDZK1iP1 grade (NUMBER OF GENES) ([1]; 50%): 0 (if this expression is lower, the grade is 0) | SENS >1.3 (NUMBER OF GENES) ([1]; 50%): 11 | SERPINB3 expression compared to control ([1]; 50%): 1.1 | SERPINB3 grade (NUMBER OF GENES) ([1]; 50%): 0 (if this expression is lower, the grade is 0) | TOTAL SENS (NUMBER OF GENES) ([1]; 50%): 11 | sensitizing potential (Sensitizing / Non-sensitizing) (EPISKIN model; 1%): Sensitizing | sensitizing potential (Sensitizing / Non-sensitizing) (EPISKIN model; 10%): Sensitizing | sensitizing potential (Sensitizing / Non-sensitizing) (EPISKIN model; 50%): Sensitizing | sensitizing power (class) (EPISKIN model; from successive dilutions 50%, 10%, 1%, 0.1%): STRONG
